One experiment addresses T1, R:G complex (Bos taurus, UniProt P04896).
T1 construct: HA signal peptide (N); made in house; host or cells: receptor: Sf9 insect cells (baculovirus); Gs subunits: HighFive insect cells
Put plainly: Analytical gel filtration, stability of the R:G complex. Here is the method:
[…]. Nature 2011 469, 175-180). To maintain the high-affinity nucleotide-free state of the complex, apyrase (25 mU/ml, NEB) was added after 90 min to hydrolyze residual GDP released from G ? supon binding to the receptor. GMP resulting from hydrolysis of GDP by apyrase has very poor affinity for the G protein in the complex.
At this stage the mixture contains the R:G complex, non-functional Gs, and an excess of β2AR. […] To prevent cysteine bridge-mediated aggregation of R:G complexes, 100 μM TCEP was added to the eluted protein prior to concentrating it with a 50 kDa MWCO Millipore concentrator. Of note, it was discovered later that crystal growth improved at even higher TCEP concentrations (above 1 mM) compared to 100 μM TCEP, and that the integrity of the R:G complex in MNG-3 was stable to 10 mM TCEP as measured by gel filtration analysis (FIG. 21C). In contrast, DDM-solubilized β2AR loses its ability to bind the high-affinity antagonist ^3H-dihydroalprenolol in 10 mM TCEP (data not shown), probably due to disruption of extracellular disulfide bonds. Iodoacetamide could not be used to block reactive cysteines on Gs alpha and beta subunits as it caused dissociation of the R:G complex (figure S9b). […] Peak fractions were pooled (FIG. 17b) and concentrated to approximately 90 mg ml^−1 with a 100 kDa MWCO Viva-spin concentrator and analyzed by SDS-PAGE/Coomassie brilliant blue staining (FIG. 17a) and gel filtration (FIG. 17c). To confirm a pure, homogeneous, and dephosphorylated preparation, the R:G complex was routinely analyzed by ion exchange chromatography (FIG. 17d).
In general terms: Size exclusion chromatography separates by hydrodynamic size, large species first.

A further experiment addresses T2, T4L-β2AR (Homo sapiens, UniProt P07550, M96T/M98T/N187E).
T2 construct: HA signal peptide (N, cleaved yes); made in house; host or cells: Sf9 insect cells, recombinant baculovirus
Put plainly: Ligand binding affinity of T4L-β2AR with M96T, M98T mutations. The source says: To increase the probability of obtaining crystals of the R:G complex two strategies were used to increase the polar surface area on the extracellular side of the receptor. […] The PNGaseF-inaccessible glycosylation site of the β2AR at N187 was mutated to Glu.

SMILES strings stand for the structures.

T1 sequence (P04896 1-380 isoform P04896-2, one chain of several): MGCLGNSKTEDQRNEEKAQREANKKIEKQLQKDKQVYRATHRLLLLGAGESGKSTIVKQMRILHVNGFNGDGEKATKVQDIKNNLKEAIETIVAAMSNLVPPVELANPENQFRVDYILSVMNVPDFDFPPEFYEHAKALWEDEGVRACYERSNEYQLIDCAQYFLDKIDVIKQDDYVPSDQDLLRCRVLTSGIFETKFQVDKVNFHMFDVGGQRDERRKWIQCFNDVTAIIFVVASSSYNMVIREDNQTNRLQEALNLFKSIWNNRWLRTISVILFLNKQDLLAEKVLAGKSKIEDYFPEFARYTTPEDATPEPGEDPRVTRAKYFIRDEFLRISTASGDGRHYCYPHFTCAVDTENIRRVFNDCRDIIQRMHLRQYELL

Take `Nc1nc2c(ncn2[C@@H]2O[C@H](COP(=O)(O)OP(=O)(O)O)[C@@H](O)[C@H]2O)c(=O)[nH]1` [GDP]: on R:G complex (nucleotides at 0.1 mM), the “effect on the R:G complex” value is recorded as “cause dissociation of the R:G complex”. In the case of `Nc1nc2c(ncn2[C@@H]2O[C@H](COP(=O)(O)OP(=O)(O)OP(O)(O)=S)[C@@H](O)[C@H]2O)c(=O)[nH]1` [GTPγS], the “effect on the R:G complex” value on R:G complex (nucleotides at 0.1 mM) was “cause dissociation of the R:G complex”.

Take `NC(=O)CI` [iodoacetamide]: the “effect on the R:G complex” value on R:G complex (5 mM for 20 hrs at 20° C.) is listed as “led to dissociation of the complex”.

In the case of `CCCc1ccccc1OCC(O)CNC(C)C` (centres unmarked) [[3H]-Dihydroalprenolol, dihydroalprenolol], the “effect of the threonine mutations (M96T, M98T) on ligand binding affinity” value on T4L-β2AR is given as “did not affect ligand binding affinity”. In the case of `O=P(O)(O)OP(=O)(O)O` [pyrophosphate], on R:G complex (phosphates used at 5 mM), the “effect on the R:G complex” value was “do not cause disruption of the complex”.

Source of the values: patent US9422359B2, “GPCR fusion protein containing an N-terminal autonomously folding stable domain, and crystals of the same” (The Board of Trustees of the Leland Stanford Junior …, priority 2011, dated 2016).
